“Also recorded” adds a separate entry of the source. Peptide text beside a SMILES is read from it. * marks the point of attachment. Cbz = O=C(OCc1ccccc1)*
What was measured:
PKA and GSK-3β = test: Receptor functionality: Western blot of PKA and GSK-3β in B16-F10 melanoma cells; assay type: cell-based
Protocol: (§1) To detect the level of expression of the A3AR proteins Western blot analysis was performed. Cells were incubated in the presence and absence of IB-MECA (10 nM), MRS1523 (10 nM), Forskolin (50 nM), 8 Br cAMP (100 μM), Cycloheximide 20 μg/ml or MG 132 (20 nM) for different time periods at 37° C. Cells were then rinsed with ice-cold PBS and transferred to ice-cold lysis buffer (TNN buffer, 50 mM Tris buffer pH=7.5, 150 mM NaCl, NP 40). In the experiment examining the effect of trypsin on A3AR expression, cells were incubated with 0.5 ml of 0.25% trypsin for 5 minutes. The trypsinized cells were washed again with ice-cold PBS, harvested by centrifugation and subjected to lysis in TNN buffer. Cell debris was removed by centrifugation for 10 minutes, at 7500 xg. The supernatant was utilized for Western Blot analysis. Protein concentrations were determined using the Bio-Rad protein assay dye reagent. Equal amounts of the sample (50 μg) were separated by SDS-PAGE, using 12% polyacrylamide gels. The resolved proteins were then electroblotted onto nitrocellulose membranes (Schleicher & Schuell, Keene, NH, USA). Membranes were blocked with 1% bovine serum albumin and incubated with the desired primary antibody (dilution 1:1000) for 24 hours at 4° C. Blots were then washed and incubated with a secondary antibody for 1 hour at room temperature. Bands were recorded using BCIP/NBT color development kit (Promega, Madison, W1, USA). Data presented in the different figures are representative of at least three different experiments.
To test receptor functionality, the protein expression level of PKA and GSK-3β, which are modulated downstream to A3AR activation, was examined. Functional receptor sensitization by IB-MECA was observed after 15 and 60 minutes and was manifested by decreased PKA and increased GSK-3β levels. […] Indeed, the modulatory effect of IB-MECA on PKA and GSK-3β was reversed in the presence of the above agents (FIG. 8a, 8b and 8c).

A3AR [1] = molecular target: T1, A3AR (Mus musculus, UniProt Q61618); test: Western blot analysis of A3AR protein in B16-F10 melanoma cells; assay type: cell-based; conditions: B16-F10 melanoma cells exposed for 180 minutes to IB-MECA in the presence of the inhibitor
T1 construct: endogenous in cells; host or cells: B16-F10 melanoma cells
T1 sequence (Q61618 1-319): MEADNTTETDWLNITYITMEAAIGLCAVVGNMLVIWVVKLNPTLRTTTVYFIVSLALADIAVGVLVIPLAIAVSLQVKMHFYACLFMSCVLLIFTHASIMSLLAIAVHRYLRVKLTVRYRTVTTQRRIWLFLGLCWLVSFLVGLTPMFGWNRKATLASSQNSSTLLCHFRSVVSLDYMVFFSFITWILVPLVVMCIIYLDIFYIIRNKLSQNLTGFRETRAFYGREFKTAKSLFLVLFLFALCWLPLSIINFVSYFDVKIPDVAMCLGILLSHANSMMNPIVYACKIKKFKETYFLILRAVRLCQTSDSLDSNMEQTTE
Protocol: as §1
Receptor internalization by treating melanoma cells with trypsin, which removes the cell surface receptor, was examined.
Time dependent expression of A3AR in the melanoma cells was examined by Western blot analysis.

A3AR [2] = test: Northern blot analysis of A3AR mRNA in B16-F10 melanoma cells; assay type: cell-based; conditions: B16-F10 melanoma cells, antagonist with IB-MECA
Protocol: Total RNA was isolated from B16-F10 melanoma cells treated with IB-MECA, utilizing Tri-reagent (Sigma, Saint Louis). The samples were then subjected twice to phenol:chloroform extraction and washed with chloroform. RNA was precipitated with sodium acetate/ethanol following washing with ethanol, then denatured, separated (25 μg per lane) in 1.1% formaldehyde agarose gels and transferred to Hybond-N membrane. The 390 bp EcoRI fragment from A3AR cDNA clone of mouse (TAA3I.S), kindly supplied by Dr Kathia Ravid, was prepared by random-primed synthesis. Probes were used in RNA blot analysis at a hybridization temperature of 42° C. in the presence of 50% formamide.

[3] = tested on: adjuvant induced arthritis; test: Adjuvant induced arthritis (AIA) in rats, clinical and histological score; assay type: in vivo; conditions: administered 30 minutes prior to IB-MECA
Protocol: AIA in Rats: Female Lewis rats, aged 8-12 weeks, obtained from Harlan Laboratories (Jerusalem, Israel), were injected subcutaneously (s.c.) at the tail base with 100 μl of suspension composed of incomplete Freund's adjuvant (IFA) with 10 mg/ml heat killed Mycobacterium tuberculosis, (Mt) H37Ra, (Difco, Detroit, USA). To assess the clinical disease activity score, the animals were inspected every second day for clinical arthritis. The scoring system ranged from 0-4 of each limb: 0-no arthritis; 1-redness or swelling of one toe/finger joint; 2-redness and swelling of more than one toe/finger joints; 3-the ankle and tarsal-metatarsal joints involvement; 4-entire paw redness or swelling. The arthritic score was calculated by adding the four individual legs' score to a maximum of 16. For histological scoring, Animals were sacrificed, the legs were removed up to the knee level, fixed in 10% formaldehyde, decalcified, dehydrated, paraffin-embedded, cut into 4 μm sections and stained by Hematoxylin-Eosin. The assessment of all pathologic findings were performed blind using semi-quantitative grading scales of 0 to 4 for the following parameters: a) extent of inflammatory cells' infiltration to the joint tissues; b) synovial lining cell hyperplasia; c) pannus formation; and d) joint cartilage layers destruction. […] TNF-α was measured in synovia, DLN and spleen tissues derived from control and CF101 treated rats. […] Protein concentrations were determined using the Bio-Rad protein assay dye reagent. […] Bands were recorded using BCIP/NBT color development kit (Promega, Madison, Wis., USA). Densitometry of protein expression was normalized against β-actin and expressed as % of control. […]

[4] = tested on: A3AR, A2AR, PI3K, PKB/Akt, IKKα/β, NF-κB, TNF-α, GSK-3β, caspase-3; test: Western blot of A3AR and downstream signaling proteins in DLN and synovial tissue of AIA rats; assay type: in vivo; conditions: antagonist followed by IB-MECA

| SMILES | modulatory effect of IB-MECA on PKA and GSK-3β in the presence of the agent (PKA and GSK-3β) | effect on IB-MECA-induced modulation of A3AR protein expression (A3AR [1]) | other results |
| --- | --- | --- | --- |
| Nc1ncnc2c1nc(Br)n2[C@@H]1O[C@@H]2COP(=O)(O)O[C@H]2[C@H]1O [8-Br-cAMP] | reversed | – | – |
| CC(C)C[C@@H](C=O)NC(=O)[C@H](CC(C)C)NC(=O)[C@H](CC(C)C)NC(=O)OCc1ccccc1 [MG132] (Cbz-Leu-Leu-Leu-aldehyde) | – | prevented A3AR down-regulation | – |
| CCCOC(=O)c1c(-c2ccccc2)nc(CC)c(C(=O)SCC)c1CCC [MRS1523] | reversed | – | effect on IB-MECA-induced A3AR mRNA expression (A3AR [2]): reversed the increase in mRNA expression |
| O=C(Cc1ccccc1)Nc1nc2ccc(Cl)cc2c2nc(-c3ccco3)nn12 [MRS 1220] | – | – | effect on the anti-inflammatory response of IB-MECA (clinical score) [3]: nullified; also recorded: nullification; effect on IB-MECA-induced A3AR modulation [4]: blocked this modulation |
| C[C@@H]1C[C@@H]([C@H](O)CC2CC(=O)NC(=O)C2)C(=O)[C@@H](C)C1 [cycloheximide] | – | inhibited receptor up-regulation | – |

Source: patent publication US20040229246A1, “Diagnostic markers for therapeutic treatment” (Can-Fite Biopharam Ltd., priority 2002, published 2004)
